The numbers were not newly measured in patent US10526334B2, “Methods for preparing bis-tetrahydroisoquinoline-containing compounds” (California Institute of Technology, priority 2017, dated 2020), which cites them from elsewhere.

Each structure is given as a SMILES string. Like-named read-outs stand apart in the source and are kept apart here.

Assay in data set [1]: not given
The source holds these as a separate data set.

[2] abbreviates: read-out: IC50 (A549 lung cancer).

A word on the IC50: it is the concentration that inhibits the measured activity by half. Regarding `COc1cc2c(cc1O)CCN[C@]21CS[C@@H]2c3c(OC(C)=O)c(C)c4c(c3[C@H](COC1=O)N1[C@@H]2[C@H]2c3c(cc(C)c(OC)c3O)C[C@@H]([C@@H]1O)N2C)OCO4` [Et 743, ecteinascidin 743], the “in vivo half-life (t1/2)” value (in rodents) is 20 h and the “in vivo half-life (t1/2)” value in data set [1] (in humans) was 96 to 180 h. The “t1/2 (rodent)” value (rodent) is 20 h. In addition, the values for the half-inhibitory concentration (IC50) with A375 melanoma and in the data set on A549 lung cancer (setting [2]) were 0.15 nM and 1 nM, respectively. Besides, the “t1/2 (human)” value in data set [1] (human) is 96 to 180 h.

For the molecule `COC1=C(C)C(=O)C2=C(C1=O)[C@@H]1[C@@H]3CC4=C(C(=O)C(OC)=C(C)C4=O)[C@H](COC(C)=O)N3[C@@H](O)[C@H](C2)N1C` [Jorumycin, jorumycin], the 50% inhibitory concentration (IC50) with HCT116 colon cancer was 0.57 nM; in the data set on A549 lung cancer (read-out: IC50 vs. A549 lung cancer), 0.24 nM; in the data set with DU145 prostate cancer, 0.49 nM.

For `COc1c(C)c(OC)c2c(c1O)[C@@H]1[C@@H]3Cc4c(OC)c(C)c(OC)c(O)c4[C@H](CNC(=O)c4ccc5ccccc5n4)N3[C@@H](C#N)[C@H](C2)N1C` [QAD], the “rodent in vivo half-life” value (rodent) was 0.283 h. Also, the half-inhibitory concentration (IC50) in the data set on A375 melanoma was 1.3 nM; in the data set with A549 lung cancer (setting [2]) it was 4.4 nM.
